{"source": "patent US7708799B2", "about": "“Dithiocarbamates and phosphite formulations” (priority 2005, dated 2010)", "system": "Spores of the fungus Mycosphearella sp", "assay": "Spore germination test on amended water agar plates", "assay_type": "cell-based", "settings": "agar amended with mancozeb alone at 100 ppm; 4×10^5 spores; 12 hours incubation", "procedure": "The flowable Calcium formulation (named Calciphite) combination plus Mancozeb as described in the above example was tested for its ability to inhibit spore germination as compared to Mancozeb. Water agar plates were prepared and amended with the Calciphite/mancozeb combination (50 ppm) or mancozeb alone (100 ppm). Spores of the fungus Mycosphearella sp at a spore concentration of 4×10^5 were sprayed onto the surface of the plates and incubated for 12 hours after which the plates were assessed for germination.", "data": [{"substance": "mancozeb", "values": [{"measurement": "% spore germination", "value": 81, "unit": "%"}]}]}
